According to patent US10709724B2, “Methods of treating mitochondrial dysfunction” (Ecole Polytechnique Federale de Lausanne (EPFL), priority 2011, dated 2020):

Key:
[1] = tested on: C2C12 myotubes, Hepa1.6 and HEK293T cells; assay: Total intracellular NAD+ content after NR in cell lines; assay type: cell-based, murine and human; details: 24 hrs
From the text: Murine Hepa1.6 and HEK293T cells were maintained in 4.5 g/L glucose DMEM, 10% FCS. For the transfection of HEK293T cells JetPei was used (Polyplus transfections, Illkirch, France) according to the description of the company. PARP-2 depletion and overexpression took place as described in (Bai et al. 2007).
C2C12 cells were maintained in 4.5 g/L glucose DMEM, 10% FCS and were differentiated in 4.5 g/L glucose DMEM, 2% horse serum for 2 days, when cells were considered myofibers. PARP-2 was depleted from C2C12 cells using lentiviral shRNA system (MISSION Lentiviral Vectors, Sigma-Aldrich). The vectors contained the interfering and control sequences described in (Bai et al. 2007). C2C12 cells were transduced with 20 MOI virus and were selected with […] puromycin. Cells withstanding puromycin selection were subcultured. […] The efficiency of knock-down at the mRNA level was assessed by RT-qPCR.
NAD^+ NAM Determination. NAD^+ levels in cultured cells were determined using a commercial kit (Enzychrom™, BioAssays Systems, CA). For tissue samples NAD^+ and NAM levels were determined as described in (Sauve et al., 2005). […] Clear supernatant was injected onto HPLC C-18 column with 20 mM ammonium acetate eluent to separate NAD^+ and NAM from other cellular components, NAD^+ and NAM peaks (260 nm absorbance) were collected. […]

[2] = tested on: C57Bl/6J mice; assay: NAD+ content in mouse tissues after one week of supplemented chow; assay type: in vivo; details: 400 mg/kg/day in chow
Procedure: Animal Experiments. […] In other animal experiments, 8 weeks-old male C57Bl/6J mice were purchased from Charles River and powder chow (D12450B) and high fat (D12492) diets were from Research Diets Inc (New Brunswick, N.J., USA). 80 ml of water per kg of powder CD were used to make food pellets. 40 ml of water per kg of powder HFD were used to make food pellets. […] Mice were housed separately, had ad libitum access to water and food and were kept under a 12 h dark-light cycle. Mice were fed with homemade pellets from 10 weeks of age. […] All animal experiments were carried out according to local national and EU ethical guidelines. To monitor body weight, mice were weighed and the food consumption was measured each week on the same day. In case of PJ34 treatment, mice received each 12 h (at 7:00 and 19:00) 10 mg/kg PJ34 by intraperitoneal injection for 5 continuous days. In all studies animals were killed (at 14:00) either after CO2 inhalation or cervical dislocation after 6 h of fasting (starting at 8:00), and tissues were collected and processed as specified below. […] Plasma insulin and was determined in heparinized plasma samples using specific ELISA kits (Mercodia). Blood samples were collected in heparinized tubes and plasma was isolated after centrifugation. Plasma parameters were measured using a Cobas c111 (Roche Diagnostics). […] The respiratory quotient was the ratio of CO2 production over O2 consumption. During actimetry, beamline crossings were summarized each 15 minutes.
NAD^+ NAM Determination. NAD^+ levels in cultured cells were determined using a commercial kit (Enzychrom™, BioAssays Systems, CA). […] 70 L of ice-cold 7% perchloric acid was then added and the sample was vortexed and sonicated three times, then centrifuged. Clear supernatant was removed and neutralized by additions of 3 M NaOH and 1 M phosphate buffer (pH=9), then centrifuged. Clear supernatant was injected onto HPLC C-18 column with 20 mM ammonium acetate eluent to separate NAD^+ and NAM from other cellular components, NAD^+ and NAM peaks (260 nm absorbance) were collected. Collections were lyophilized to dryness and subjected to MALDI-TOF analysis. […] Corrections were applied for isotopic abundance.

Compound: NC(=O)c1ccc[n+]([C@@H]2O[C@H](CO)[C@@H](O)[C@H]2O)c1 [NR, nicotinamide riboside]
- ability to increase intracellular NAD+ compared with NMN and NA ([1]; 0.5 mM): at least, similar to that of these other precursors
- intracellular NAD+ levels [1]: dose-dependently increased intracellular NAD^+ levels
- NAD+ levels in liver [2]: increased NAD^+ levels in liver
- mitochondrial NAD+ levels in mouse liver [2]: mitochondrial NAD^+ levels were enhanced
- muscle NAD+ content ([2]; quadriceps): significantly enhanced muscle NAD^+ content
